Columns and labels:
[1] = test system: panelists; test: Taste evaluation: overall sweetness of 30 ppm solutions against sucrose controls (sweetness recognition threshold); assay type: in vivo, human; conditions: for sweetness recognition threshold: lowest concentration perceivable by the human sense of taste; for sucrose equivalence / isosweetness of a solution of the compound alone: solution containing 30 ppm compound, no additional sweetener, isosweet sucrose solution
Procedure: (§1) Solutions were made by dissolving all ingredients in treated water. For citric acid buffer, citric acid and potassium citrate were added in a sufficient amount to bring the pH to 3.2. Finished products were filled in 300 ml glass bottles and stored in the refrigerator and tasted the following day.
(§2) Beverages in citric acid/sodium citrate buffer were kept at 4° C. in the refrigerator and tasted the following day. Four panelists evaluated the beverages. Bottles were removed from the refrigerator and about 20 ml of beverage poured in 2 oz. plastic cups. Panelists were instructed not to swallow the samples and additional cups were provided to spit the sample in. Mineral water was given for palate rinsing before tasting and between tasting different samples.
To evaluate 30 ppm of rebaudioside N and rebaudioside O for overall sweetness, panelists were provided solutions of 1%, 1.5%, and 2% sucrose in citric acid/sodium citrate buffer as controls. All panelists determined the overall sweetness of 30 ppm of rebaudioside N and rebaudioside O solutions in citric acid/sodium citrate buffer to fall between 1% and 1.5% sucrose controls. Accordingly, 30 ppm was determined to be the sweetness recognition threshold concentration for both compounds.

[2] = test system: panelists; test: Taste evaluation: sweetness enhancement of 30 ppm added to 8% sucrose beverage against sucrose controls; assay type: in vivo, human; conditions: for sweetness enhancement: 30 ppm compound added to beverage containing 8% sucrose, citric acid/sodium citrate buffer; for increase in isosweetness provided by the compound: 30 ppm compound in beverage with 8% (w/v) sucrose; for isosweetness of beverage containing sucrose and compound: beverage with 8% (w/v) sucrose and 30 ppm compound, isosweet sucrose solution
Procedure: as §1, §2
Sweetness enhancement of rebaudioside N and rebaudioside O was evaluated by adding 30 ppm to a solution of 8% sucrose in citric acid/sodium citrate buffer (pH 3.2). The new solutions were then evaluated for their overall sweetness against three controls of 8%, 9%, and 10% sucrose in citric acid/sodium citrate buffer solutions (pH 3.2).

| SMILES | sweetness recognition threshold [1] | sucrose equivalence / isosweetness of a solution of the compound alone [1] | sweetness enhancement [2] | increase in isosweetness provided by the compound [2] | isosweetness of beverage containing sucrose and compound [2] | overall sweetness of beverage against sucrose controls ([2]; 30 ppm compound and 8% sucrose in citric acid/sodium citrate buffer (pH 3.2), 8%, 9%, 10% sucrose controls) |
| --- | --- | --- | --- | --- | --- | --- |
| C=C1C[C@@]23CCC4[C@](C)(C(=O)OC5OC(CO)C(O)C(OC6OC(CO)C(O)C(O)C6O)C5OC5OC(C)C(O)C(O)C5O)CCC[C@@]4(C)[C@@H]2CC[C@]1(OC1OC(CO)C(O)C(OC2OC(CO)C(O)C(O)C2O)C1OC1OC(CO)C(O)C(O)C1O)C3 (stereo partly drawn) [Compound (2f), 13-[(2-O-β-D-glucopyranosyl-3-O-β-D-glucopyranosyl-β-D-glucopyranosyl)oxy]ent-kaur-16-en-19-oic acid-[(2-O-α-D-rhamnopyranosyl-3-O-β-D-glucopyranosyl-β-D-glucopyranosyl)ester]] | about 30 ppm | 1.0-1.5 % (w/v) | 2.5-3.0% | 2.5-3.0 % (w/v) | 10.5-11.0 % (w/v) |  |
| C=C1C[C@@]23CCC4[C@](C)(C(=O)OC5OC(CO)C(O)C(OC6OC(CO)C(O)C(O)C6O)C5OC5OC(C)C(O)C(OC6OC(CO)C(O)C(O)C6O)C5O)CCC[C@@]4(C)[C@@H]2CC[C@]1(OC1OC(CO)C(O)C(OC2OC(CO)C(O)C(O)C2O)C1OC1OC(CO)C(O)C(O)C1O)C3 (stereo partly drawn) [Compound (2g), 13-[(2-O-β-D-glucopyranosyl-3-O-β-D-glucopyranosyl-β-D-glucopyranosyl)oxy]ent-kaur-16-en-19-oic acid-[(2-O-(3-O-β-D-glucopyranosyl-α-D-rhamnopyranosyl)-3-O-β-D-glucopyranosyl-β-D-glucopyranosyl)ester]] | about 30 ppm | 1.0-1.5 % (w/v) | about 2.0% | 2.0 % (w/v) | 10.0 % (w/v) | ~10% |

— patent US10570164B2, “Steviol glycosides, their compositions and their purification” (The Coca-Cola Company, priority 2013, dated 2020)
